Results published in patent US5696083A, “Personal care composition containing pyrithione and polymyxin” (Olin Corporation, priority 1994, dated 1997).

What was measured:
Type in all cases: cell-based
[1] = tested on: Alcaligens faecalis; assay: MIC in Tryptic Soy Broth, compounds alone and in mixtures; conditions: Table 2, 28° C., 6 days
Description: (§1) Determinations of minimum inhibitory concentrations (MIC's) of the two compounds (pyrithione salts and/or polymyxin sulfate) in a nutrient broth (alone and in mixtures) were conducted to evaluate interactions. Stock solutions of pyrithione salts and/or polymyxin salts were diluted in Tryptic Soy Broth (Difco), and the dilutions were inoculated with an equal volume of bacterial culture (10^6 /ml) or fungal spore suspension (10^5 /ml) in Tryptic Soy Broth and incubated at 28° C. for 3-7 days.
(§2) The interactions of the antimicrobials were determined according to accepted procedures (M. C. Berenbaum [Tables 1 and 2] and P. F. Dougherty "Microdilution Transfer Plate Technique for Determining In Vitro Synergy of Antimicrobial Agents", ANTIMICROBIAL AGENTS AND CHEMOTHERAPY, Vol. 11, No. 2, p. 225-228 (Feb. 1977, American Society for Microbiology) [Tables 3 and 4]). The concentration of each agent in the combination that inhibits the organisms is expressed as a fraction of the concentration that causes the same effect when the same agent is tested alone (i.e., its fractional inhibitory concentration, FIC). If the sum of the FIC's is 1, the combination is additive in its antimicrobial effect; if the sum is <1, the combination is synergistic; and if the sum is >1, the combination is antagonistic.
(§3) ^a Compounds were serially diluted in Tryptic soy Broth (DIFCO),
(§4) ^b Each dilution contained 10^6 bacteria/ml of 10^5 fungi/ml.
(§5) ^a Stock solutions of ZP in dimethylsulfoxide and PB in sterile water

[2] = tested on: Aspergillus niger; assay: as above; conditions: Table 2, 28° C., 7 days
Description: as §1, §2, §3, §4, §5

[3] = tested on: Aureobasidium pullulans; assay: as above; conditions: Table 2, 28° C., 7 days
Description: as §1, §2, §3, §4, §5

[4] = tested on: Candida albicans; assay: as above; conditions: Table 2, 28° C., 7 days
Description: as §1, §2, §3, §4, §5

[5] = tested on: Cephalosporium sp.; assay: as above; conditions: Table 2, 28° C., 7 days
Description: as §1, §2, §3, §4, §5

[6] = tested on: Chaetomium globosium; assay: as above; conditions: Table 2, 28° C., 7 days
Description: as §1, §2, §3, §4, §5

[7] = tested on: Citrobacter freundii; assay: as above; conditions: Table 2, 28° C., 6 days
Description: as §1, §2, §3, §4, §5

[8] = tested on: Fusarium solani; assay: as above; conditions: Table 2, 28° C., 7 days
Description: as §1, §2, §3, §4, §5

[9] = tested on: Gliocladium virens; assay: as above; conditions: Table 2, 28° C., 7 days
Description: as §1, §2, §3, §4, §5

[10] = tested on: Penicillin pinophilium; assay: as above; conditions: Table 2, 28° C., 7 days
Description: as §1, §2, §3, §4, §5

[11] = tested on: Proteus mirabilis; assay: as above; conditions: Table 2, 28° C., 6 days
Description: as §1, §2, §3, §4, §5

[12] = tested on: Pseudomonas Stutzeri; assay: as above; conditions: Table 2, 28° C., 6 days
Description: as §1, §2, §3, §4, §5

[13] = tested on: Pseudomonas aeruginosa; assay: as above; conditions: Table 2, 28° C., 6 days
Description: as §1, §2, §3, §4, §5

[14] = tested on: Pseudomonas fluorescens; assay: as above; conditions: Table 2, 28° C., 6 days
Description: as §1, §2, §3, §4, §5

[15] = tested on: Pseudomonas oleovorans; assay: as above; conditions: Table 2, 28° C., 6 days
Description: as §1, §2, §3, §4, §5

[16] = tested on: Pseudomonas rubescens; assay: as above; conditions: Table 2, 28° C., 6 days
Description: as §1, §2, §3, §4, §5

[17] = tested on: Trichophyton mentagrophytes; assay: as above; conditions: Table 2, 28° C., 7 days
Description: as §1, §2, §3, §4, §5

[18] = tested on: Fusarium sp.; assay: as above; conditions: Table 2, 28° C., 7 days
Excerpt: as §3, §4, §5

[19] = tested on: Candida albicans; assay: Checkerboard MIC Test in Tryptic Soy Broth; conditions: Table 4, 28° C., 5 days
Description: as §1, §2, §4

[20] = tested on: Proteus mirabilis; assay: Checkerboard MIC Test in Tryptic Soy Broth; conditions: Table 4, 28° C., 3 days
Description: as §1, §2, §4

[21] = tested on: Pseudomonas aeruginosa; assay: Checkerboard MIC Test in Tryptic Soy Broth; conditions: Table 4, 28° C., 3 days
Description: as §1, §2, §4

[22] = tested on: Pseudomonas fluorescens; assay: Checkerboard MIC Test in Tryptic Soy Broth; conditions: Table 4, 28° C., 3 days
Description: as §1, §2, §4

[23] = tested on: Trichophyton mentagrophytes; assay: Checkerboard MIC Test in Tryptic Soy Broth; conditions: Table 4, 28° C., 5 days
Description: as §1, §2, §4

[24] = alone, Tryptic Soy Broth, PB sulfate 7730 units/mg
[25] = concentration of the component in ZP+PB mixture, ZP/PB ratio 1/32-1/8
[26] = concentration of the component in ZP+PB mixture, ZP/PB ratio 1/8-1
[27] = alone, checkerboard, PE methanesulfonate, Na+, 14,310 units/mg

## zinc pyrithione [ZP]
[1]; [24]
  Minimum Inhibitory Concentration, Compound Used Alone: 10.7 ppm
[1]; concentration of the component in ZP+PB mixture, ZP/PB ratio 8-32
  Minimum Inhibitory Concentration, Mixture: 6.7 ppm
[2]; [24]
  Minimum Inhibitory Concentration, Compound Used Alone: 32.0 ppm
[2]; [25]
  Minimum Inhibitory Concentration, Mixture: 16.0 ppm
[3]; [24]
  Minimum Inhibitory Concentration, Compound Used Alone: 8.0 ppm
[3]; concentration of the component in ZP+PB mixture, ZP/PB ratio 1/32-1/16
  Minimum Inhibitory Concentration, Mixture: 4.0 ppm
[4]; [24]
  Minimum Inhibitory Concentration, Compound Used Alone: 8.0 ppm
[4]; [25]
  Minimum Inhibitory Concentration, Mixture: 4.0 ppm
[5]; [24]
  Minimum Inhibitory Concentration, Compound Used Alone: 16.0 ppm
[5]; concentration of the component in ZP+PB mixture, ZP/PB ratio 1/16-1/8
  Minimum Inhibitory Concentration, Mixture: 4.0 ppm
[6]; [24]
  Minimum Inhibitory Concentration, Compound Used Alone: 67.0 ppm
[6]; [26]
  Minimum Inhibitory Concentration, Mixture: 13.3 ppm
[7]; [24]
  Minimum Inhibitory Concentration, Compound Used Alone: 8.0 ppm
[7]; concentration of the component in ZP+PB mixture, ZP/PB ratio 16-64
  Minimum Inhibitory Concentration, Mixture: 3.3 ppm
[8]; [24]
  Minimum Inhibitory Concentration, Compound Used Alone: 64.0 ppm
[8]; [26]
  Minimum Inhibitory Concentration, Mixture: 13.3 ppm
[9]; [24]
  Minimum Inhibitory Concentration, Compound Used Alone: 80.0 ppm
[9]; concentration of the component in ZP+PB mixture, ZP/PB ratio 1-2
  Minimum Inhibitory Concentration, Mixture: 24.0 ppm
[10]; [24]
  Minimum Inhibitory Concentration, Compound Used Alone: 16.0 ppm
[10]; concentration of the component in ZP+PB mixture, ZP/PB ratio 1/8
  Minimum Inhibitory Concentration, Mixture: 4.0 ppm
[11]; [24]
  Minimum Inhibitory Concentration, Compound Used Alone: 4.0 ppm
[11]; concentration of the component in ZP+PB mixture, ZP/PB ratio 1/32
  Minimum Inhibitory Concentration, Mixture: 2.0 ppm
[12]; [24]
  Minimum Inhibitory Concentration, Compound Used Alone: 4.0 ppm
[12]; concentration of the component in ZP+PB mixture, ZP/PB ratio 16-128
  Minimum Inhibitory Concentration, Mixture: 4.0 ppm
[13]; [24]
  Minimum Inhibitory Concentration, Compound Used Alone: 288.0 ppm
[13]; concentration of the component in ZP+PB mixture, ZP/PB ratio 128-256
  Minimum Inhibitory Concentration, Mixture: 112.0 ppm
[14]; [24]
  Minimum Inhibitory Concentration, Compound Used Alone: 106.7 ppm
[14]; concentration of the component in ZP+PB mixture, ZP/PB ratio 8-16
  Minimum Inhibitory Concentration, Mixture: 4.7 ppm
[15]; [24]
  Minimum Inhibitory Concentration, Compound Used Alone: 6.7 ppm
[15]; concentration of the component in ZP+PB mixture, ZP/PB ratio 16-32
  Minimum Inhibitory Concentration, Mixture: 4.0 ppm
[16]; [24]
  Minimum Inhibitory Concentration, Compound Used Alone: 3.3 ppm
[16]; concentration of the component in ZP+PB mixture, ZP/PB ratio 256
  Minimum Inhibitory Concentration, Mixture: 3.3 ppm
[17]; [24]
  Minimum Inhibitory Concentration, Compound Used Alone: 8.0 ppm
[17]; concentration of the component in ZP+PB mixture, ZP/PB ratio 1/4-1/2
  Minimum Inhibitory Concentration, Mixture: 8.0 ppm
[18]; [24]
  Minimum Inhibitory Concentration, Compound Used Alone: 64.0 ppm
[18]; [26]
  Minimum Inhibitory Concentration, Mixture: 18.7 ppm
[19]; [27]
  Minimum Inhibitory Concentration, Compound Used Alone: 16 ppm
[19]; concentration of the component in ZP+PE mixtures, ZP/PE range 1/2048-1/4
  Minimum Inhibitory Concentration, Mixture Range: 1-8 ppm
[20]; [27]
  Minimum Inhibitory Concentration, Compound Used Alone: 8 ppm
[20]; concentration of the component in ZP+PE mixtures, ZP/PE range 1/1024
  Minimum Inhibitory Concentration, Mixture Range: 4 ppm
[21]; [27]
  Minimum Inhibitory Concentration, Compound Used Alone: 128 ppm
[21]; concentration of the component in ZP+PE mixtures, ZP/PE range 2-8
  Minimum Inhibitory Concentration, Mixture Range: 16-32 ppm
[22]; [27]
  Minimum Inhibitory Concentration, Compound Used Alone: 64 ppm
[22]; concentration of the component in ZP+PE mixtures, ZP/PE range ≤1/128-4
  Minimum Inhibitory Concentration, Mixture Range: ≤1-16 ppm
[23]; [27]
  Minimum Inhibitory Concentration, Compound Used Alone: 16 ppm
[23]; concentration of the component in ZP+PE mixtures, ZP/PE range 1/4-4
  Minimum Inhibitory Concentration, Mixture Range: 8-16 ppm
